{"source": "patent US4398937A", "about": "“Selective algaecides for control of cyanochloronta” (The University of Southern Mississippi, priority 1981, dated 1983)", "type_in_all_cases": "cell-based", "key": {"[1]": {"test_system": "Chlamydomonas sp.", "test": "Test tube culture inhibition of Chlamydomonas sp., algal units/ml", "procedure": "(§1) The algae used in this particular study were Chlamydomonas sp., Chlorella vulgaris, Anabaena sp., and Anabaena flos-aquae. Cultures of these algae were obtained, subcultured, and aqueous stocks of algae in 400 ml BBM were prepared and were used in log phase growth to innoculate test cultures.\n(§2) The fatty acids which were tested as algal inhibitors were 9, 10-dihydroxystearic acid, linoleic acid, dodecanoic acid, and ricinoleic acid.\n(§3) The test procedure involved placing 15 ml of BBM into 25 ml test tubes and innoculating them with 0.2 ml of algal stock solution. Twenty test tubes were innoculated with each algae. Four of these cultures were used with each concentration of each of the fatty acids. Four tubes from each set served as controls. Four concentrations of the fatty acids were used for each alga. The concentrations studied were 0.5 PPM, 1.0 PPM, 5.0 PPM, and 10.0 PPM.\n(§4) Algal cultures were incubated under constant light of about 200 foot-candles and at a temperature of 68° F. Bold's Basal Medium (BBM), a modification of Bristol's solution was the medium in which all the cultures were grown. Bold's Basal Medium was prepared as follows:\n(§5) Concentrations of fatty acids and the amount of stock solution used to prepare them were as follows:\n(§6) Each test tube contained 15 ml sterile BBM. To this was added an aliquot of 0.2 of algal stock solution. Then the appropriate aliquots of warm acid stock solution were added to the appropriate number of culture tubes. These cultures were then incubated 5 days and at that point were counted. The same cultures were also counted after a 12 day growth period.\n(§7) Stock solutions of the fatty acids to be tested as algal inhibitors were made from a stock solution of 5% sodium bicarbonate in glass-distilled water. The 5% sodium bicarbonate stock solution was made by dissolving 150 grams of sodium bicarbonate in 3000 ml of glass-distilled water. To insure complete dissolution, the solution was heated and stirred on a magnetic stirrer hot plate. The warm solution was used in preparing the fatty acid stock solutions.\n(§8) Quanitative phytoplankton values were determined using the random field method. Filaments, colonies, and aggregations of cells were recorded as algal units. Each unit consisted of approximately 6 cells. Unicellular algae were counted as separate units. Algal counts were made from each of three duplicate cultures. One ml of the algal sample was placed in a Sedgwick-Rafter counting chamber, which is 50 mm long by 20 mm, wide by 1 mm deep. A Wild Heerbrugg, compound microscope with a Whipple grid eyepiece was used to determine quantitative algae values.\n(§9) One ml of the algal solution was placed in the counting chamber, and two drops of methyl cellulose were added to minimize the movement of Chlamydomonas sp. Ten random fields were counted and all organisms within the Whipple grid field were enumerated.\n(§10) The following formula used to calculate the numbers per milliliter from the field counts: [formula] where: C=number of organisms counted,\n(§11) The area of the Whipple grid used was 0.46 mm^2, and the depth of a field was 1 mm. Results of the counts were reported as algal units/ml."}, "[2]": {"test_system": "Anabaena flos-aquae", "test": "Test tube culture inhibition of Anabaena flos-aquae, algal units/ml", "procedure": "as §1, §2, §3, §4, §5, §6, §7, §8, §9, §10, §11"}, "[3]": {"test_system": "Chlorella vulgaris", "test": "Test tube culture inhibition of Chlorella vulgaris, algal units/ml", "procedure": "as §1, §2, §3, §4, §5, §6, §7, §8, §9, §10, §11"}, "[4]": {"test_system": "Anabaena sp.", "test": "Test tube culture inhibition of Anabaena sp., algal units/ml", "procedure": "as §1, §2, §3, §4, §5, §6, §7, §8, §9, §10, §11"}, "[5]": {"test_system": "Anabaena flos-aquae", "test": "300 ml batch culture of Anabaena flos-aquae, visual", "procedure": "(§12) As a means of visually confirming some of the results batch cultures of 300 ml. of Anabaena flos-aquae and Chlorella vulgaris were grown."}, "[6]": {"test_system": "Chlorella vulgaris", "test": "300 ml batch culture of Chlorella vulgaris, visual", "conditions": "batch cultures, all concentrations", "procedure": "as §12"}, "[7]": {"conditions": "5 and 12 days, all concentrations"}}, "note": "Read-outs that look alike come from different tables or passages of the source."}
{"molecule": "CCCCCC[C@@H](O)C/C=C\\CCCCCCCC(=O)O", "note": "[Ricinoleic Acid, ricinoleic acid]", "values": [{"measurement": "effect on algal growth", "setting": "[1]; [7]", "result": "stimulatory effect"}, {"measurement": "concentration of maximum stimulatory effect", "setting": "[1]; 5 days", "result": 5.0, "unit": "PPM"}, {"measurement": "Algal units/ml", "setting": "[1]; 5 days, 0.5 PPM", "result": 18696, "unit": "units/ml"}, {"measurement": "Algal units/ml", "setting": "[1]; 5 days, 1.0 PPM", "result": 29130, "unit": "units/ml"}, {"measurement": "Algal units/ml", "setting": "[1]; 5 days, 5.0 PPM", "result": 32609, "unit": "units/ml"}, {"measurement": "Algal units/ml", "setting": "[1]; 5 days, 10.0 PPM", "result": 13043, "unit": "units/ml"}, {"measurement": "concentration of maximum stimulatory effect", "setting": "[1]; 12 days", "result": 0.5, "unit": "PPM"}, {"measurement": "Algal units/ml", "setting": "[1]; 12 days, 0.5 PPM", "result": 65217, "unit": "units/ml"}, {"measurement": "Algal units/ml", "setting": "[1]; 12 days, 1.0 PPM", "result": 63043, "unit": "units/ml"}, {"measurement": "Algal units/ml", "setting": "[1]; 12 days, 5.0 PPM", "result": 52174, "unit": "units/ml"}, {"measurement": "Algal units/ml", "setting": "[1]; 12 days, 10.0 PPM", "result": 54348, "unit": "units/ml"}, {"measurement": "activation at 5 ppm", "setting": "[1]; Chlamydomonas, 120 h, read-out: increase in number of algal units/ml of the control", "result": 183, "unit": "%"}, {"measurement": "effect on algal growth", "setting": "[2]; [7]", "result": "inhibitory effect"}, {"measurement": "Algal units/ml", "setting": "[2]; 5 days, 0.5 PPM", "result": 435, "unit": "units/ml"}, {"measurement": "Algal units/ml", "setting": "[2]; 5 days, 1.0 PPM", "result": 1087, "unit": "units/ml"}, {"measurement": "Algal units/ml", "setting": "[2]; 5 days, 5.0 PPM", "result": 1087, "unit": "units/ml"}, {"measurement": "Algal units/ml", "setting": "[2]; 5 days, 10.0 PPM", "result": 652, "unit": "units/ml"}, {"measurement": "Algal units/ml", "setting": "[2]; 12 days, 0.5 PPM", "result": 10217, "unit": "units/ml"}, {"measurement": "Algal units/ml", "setting": "[2]; 12 days, 1.0 PPM", "result": 6522, "unit": "units/ml"}, {"measurement": "Algal units/ml", "setting": "[2]; 12 days, 5.0 PPM", "result": 4783, "unit": "units/ml"}, {"measurement": "reduction in number of algal units/ml vs control", "setting": "[2]; 12 days, 10 PPM", "result": "38,261 algal units/ml"}, {"measurement": "Algal units/ml", "setting": "[2]; 12 days, 10.0 PPM", "result": 3043, "unit": "units/ml"}, {"measurement": "inhibition of growth at 10 ppm", "setting": "[2]; Dolichospermum flos-aquae, 288 h, 12 days, 10 PPM, read-out: reduction in number of algal units/ml, % of the control", "result": 92.6, "unit": "%"}, {"measurement": "Algal units/ml", "setting": "[3]; 5 days, 0.5 PPM", "result": 20217, "unit": "units/ml"}, {"measurement": "Algal units/ml", "setting": "[3]; 5 days, 1.0 PPM", "result": 21739, "unit": "units/ml"}, {"measurement": "Algal units/ml", "setting": "[3]; 5 days, 5.0 PPM", "result": 22391, "unit": "units/ml"}, {"measurement": "Algal units/ml", "setting": "[3]; 5 days, 10.0 PPM", "result": 20870, "unit": "units/ml"}, {"measurement": "Algal units/ml", "setting": "[3]; 12 days, 0.5 PPM", "result": 217391, "unit": "units/ml"}, {"measurement": "Algal units/ml", "setting": "[3]; 12 days, 1.0 PPM", "result": 326087, "unit": "units/ml"}, {"measurement": "Algal units/ml", "setting": "[3]; 12 days, 5.0 PPM", "result": 326087, "unit": "units/ml"}, {"measurement": "Algal units/ml", "setting": "[3]; 12 days, 10.0 PPM", "result": 326087, "unit": "units/ml"}, {"measurement": "activation at 0.5 ppm", "setting": "[3]; Chlorella vulgaris, 120 h, 5 days, 0.5 PPM, read-out: more algal units/ml than in the control", "result": 86, "unit": "%"}, {"measurement": "activation at 10 ppm", "setting": "[3]; Chlorella vulgaris, 288 h, 12 days, 10 PPM, read-out: more algal units/ml than in the control", "result": 50, "unit": "%"}, {"measurement": "effect on algal growth", "setting": "[3]; all concentrations at 5 days, 5 and 10 PPM at 12 days", "result": "stimulatory effect"}, {"measurement": "inhibition of growth at 5 ppm", "setting": "[4]; 120 h, 5 days, 5.0 PPM, read-out: reduction of algal units/ml, % of the control", "result": 15.6, "unit": "%"}, {"measurement": "inhibition of growth at 10 ppm", "setting": "[4]; 120 h, 5 days, 10.0 PPM, read-out: reduction of algal units/ml, % of the control", "result": 30.6, "unit": "%"}, {"measurement": "Algal units/ml", "setting": "[4]; 5 days, 0.5 PPM", "result": 36522, "unit": "units/ml"}, {"measurement": "Algal units/ml", "setting": "[4]; 5 days, 1.0 PPM", "result": 35652, "unit": "units/ml"}, {"measurement": "Algal units/ml", "setting": "[4]; 5 days, 5.0 PPM", "result": 26957, "unit": "units/ml"}, {"measurement": "Algal units/ml", "setting": "[4]; 5 days, 10.0 PPM", "result": 22174, "unit": "units/ml"}, {"measurement": "reduction in algal units/ml vs control", "setting": "[4]; 5 days, 10.0 PPM", "result": "9,783 algal units/ml"}, {"measurement": "inhibition of growth at 0.5 ppm", "setting": "[4]; 288 h, 12 days, 0.5 PPM (so in the source), read-out: reduction of algal units/ml, % of the control", "result": 59.7, "unit": "%"}, {"measurement": "inhibition of growth at 10 ppm", "setting": "[4]; 288 h, 12 days, 10 PPM, read-out: reduction of algal units/ml, % of the control", "result": 65.2, "unit": "%"}, {"measurement": "Algal units/ml", "setting": "[4]; 12 days, 0.5 PPM", "result": 97391, "unit": "units/ml"}, {"measurement": "reduction of algal units/ml vs control", "setting": "[4]; 12 days, 0.5 PPM (so in the source)", "result": "70,434 algal units/ml"}, {"measurement": "Algal units/ml", "setting": "[4]; 12 days, 1.0 PPM", "result": 81957, "unit": "units/ml"}, {"measurement": "Algal units/ml", "setting": "[4]; 12 days, 5.0 PPM", "result": 47609, "unit": "units/ml"}, {"measurement": "reduction of algal units/ml vs control", "setting": "[4]; 12 days, 10 PPM", "result": "76,956 algal units/ml"}, {"measurement": "Algal units/ml", "setting": "[4]; 12 days, 10.0 PPM", "result": 41087, "unit": "units/ml"}, {"measurement": "effect on growth", "setting": "[4]; concentrations of 1.0 PPM or less", "result": "stimulatory effect"}, {"measurement": "inhibition (visual)", "setting": "[5]; 1 PPM", "result": "slightly inhibited"}, {"measurement": "inhibition (visual)", "setting": "[5]; 10 PPM", "result": "greatly inhibited"}, {"measurement": "inhibition (visual)", "setting": "[6]", "result": "no inhibition was noticed"}]}
